Assay results published in patent US12427192B2, “Water soluble adjuvant and composition containing same” (Sumitomo Pharma Co., Ltd., priority 2019, dated 2025).

Assays:
[1] = test system: HLA-A*02:01 transgenic mouse; assay: Test 11: in vivo adjuvant activity, cocktail vaccine f (emulsified composition 1), IFNγ ELISPOT; conditions: added to cocktail vaccine f (emulsified composition 1); 0.04 nmol or 0.4 nmol per body, twice; FIG. 10 and 11
Description: (§1) Evaluation of In Vivo Adjuvant Activity in HLA-A*02:01 Transgenic Mouse
The in vivo adjuvant activity of the compound of Example 1 was evaluated in the following procedure. To a cocktail vaccine (emulsified composition 1) comprising Compound of formula 4 prepared in Reference example 8 and Peptide SEQ ID No. 3 prepared in Reference example 3 (hereinafter, referred to as “cocktail vaccine f”) was added the compound prepared in Example 1 to prepare a vaccine. The vaccine was administered to a HLA-A*02:01 transgenic mouse, and the adjuvant activity of the vaccine was evaluated by the method of testing antigen-specific CTL induction.
For example, the above emulsified composition 1 was prepared as follows. 95.8% (w/w) of soybean oil, 3% (w/w) of PEG-30 dipolyhydroxy stearate, and 1.2% (w/w) of polysorbate 80 were mixed to prepare an oil-phase mixture. The amount of the preparation was adjusted as appropriate. Compound of formula 4 and Peptide SEQ ID No. 3 were mixed with pH 2.5 buffer (10 mM tartaric acid, 10% trehalose) to adjust each concentration to 3 mg/mL and 2.25 mg/mL, respectively. The prepared peptide dilution was mixed with an equal volume of the oil-phase mixture to give an emulsified product, cocktail vaccine f. […] Then, after removal of the supernatant from the wells, stained spots on the ELISPOT plate were counted.

[2] = test system: HLA-A*02:01 transgenic mouse; assay: Test 14: in vivo adjuvant activity, cocktail vaccine i (oily suspension formulation), IFNγ ELISPOT; conditions: added to cocktail vaccine i (oily suspension formulation); 0.04 nmol or 0.4 nmol per body, twice; FIG. 15 and 16
Description: as §1
The in vivo adjuvant activity of the compound of Example 1 was evaluated in the following procedure. To a cocktail vaccine (oily suspension formulation) comprising Compound of formula 4 prepared in Reference example 8 and Peptide SEQ ID No. 3 prepared in Reference example 3 (hereinafter, referred to as “cocktail vaccine i”) was added the compound prepared in Example 1 to prepare a vaccine. The vaccine was administered to a HLA-A*02:01 transgenic mouse, and the adjuvant activity of the vaccine was evaluated by the method of testing antigen-specific CTL induction.
For example, the above oily suspension formulation was prepared as follows. […]
Cocktail vaccine i was injected to mice intradermally at the tail base area in an amount for administering 300 μg of Compound of formula 4 per body and 225 μg of Peptide SEQ ID No. 3 per body. […] Then, after removal of the supernatant from the wells, stained spots on the ELISPOT plate were counted.

## CCCCCNc1nc(N)nc(C)c1Cc1ccc(CN(C)CCOCCOCCOCCOCCO)cc1OC [Example 1, 1-(4-{[2-amino-4-methyl-6-(pentylamino)pyrimidin-5-yl]methyl}-3-methoxyphenyl)-2-methyl-5,8,11,14-tetraoxa-2-azahexadecan-16-ol·trifluoroacetate]
[1]
  CTL counts responsive to Peptide SEQ ID No. 1 or SEQ ID No. 4 compared with adding no compound: more
[2]
  CTL counts responsive to Peptide SEQ ID No. 1 or SEQ ID No. 4 compared with adding no compound: more
